In patent US10316017B2, “COT modulators and methods of use thereof” (Gilead Sciences, Inc., priority 2015, dated 2019):

Legend:
[1] = target: T1, human Cot catalytic domain (30-397 amino acids) (Homo sapiens, UniProt P41279); experiment: High Throughput Cot Biochemical Assay (KinEASE TR-FRET); conditions: Cot KinEASE TR-FRET (HTRF) biochemical assay, 400 μM ATP; read-out: IC50 HTRF
T1 construct: Purified recombinant human Cot catalytic domain (30-397 amino acids) was purchased from Cama Biosciences; purchased Cama Biosciences (so in the source)
T1 sequence (P41279 30-397): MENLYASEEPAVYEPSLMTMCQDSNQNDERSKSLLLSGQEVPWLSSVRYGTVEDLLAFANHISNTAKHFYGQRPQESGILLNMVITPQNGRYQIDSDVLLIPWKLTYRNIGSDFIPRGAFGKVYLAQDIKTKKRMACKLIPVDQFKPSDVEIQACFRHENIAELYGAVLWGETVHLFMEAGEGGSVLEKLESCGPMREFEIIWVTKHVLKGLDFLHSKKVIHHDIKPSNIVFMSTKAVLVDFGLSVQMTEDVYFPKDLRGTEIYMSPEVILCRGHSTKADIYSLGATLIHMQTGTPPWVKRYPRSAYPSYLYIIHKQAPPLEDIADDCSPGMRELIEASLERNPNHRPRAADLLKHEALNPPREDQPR
Procedure, shortened: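 Reaction of 5 nM recombinant human Cot catalytic domain (aa 30-397) with 1 μM STK3 peptide (XL665-labeled) and 400 μM ATP in 10 mM MOPS pH 7.0, 10 mM MgOAc, 1 mM DTT, 0.5 mg/mL BSA, 0.1% DMSO. Phosphopeptide detected by TR-FRET with europium anti-phospho antibody.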

[2] = system: TNFα production in LPS-stimulated human monocytes; experiment: Cot Monocyte TNFα Cell Based Assay; conditions: Homo sapiens, Monocyte, TNFα in LPS-stimulated human monocytes; read-out: EC50 TNF
Procedure, shortened: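 Cells at 5,000/well were pretreated with compound for 1 h at 37 °C (0.5% DMSO final), then stimulated with 50 pg/ml LPS for 4 h at 37 °C. Supernatant TNFα was measured by two-antibody TR-FRET after overnight room-temperature incubation; values are percent of control between unstimulated and stimulated wells.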

| Compound | IC50 [1] [nM] | EC50 [2] [nM] |
| --- | --- | --- |
| [2H][C@](Nc1cc(C(F)(F)F)c2ncc(C#N)c(NCC(C)(C)C)c2c1)(c1ccc(F)cc1)c1cn(C2CC2)nn1 [Example 196, (S)-6-(((1-cyclopropyl-1H-1,2,3-triazol-4-yl)(4-fluorophenyl)methyl-d)amino)-4-(neopentylamino)-8-(trifluoromethyl) quinoline-3-carbonitrile] | 267 | 1510 |
| [2H][C@@](Nc1cc(Cl)c2ncc(C#N)c(NCC(C)(C)C)c2c1)(c1cn(C2CC2)nn1)c1cccc(C#N)c1C [Example 197, (S)-8-chloro-6-(((3-cyano-2-methylphenyl) (1-cyclopropyl-1H-1,2,3-triazol-4-yl)methyl-d)amino)-4-(neopentylamino) quinoline-3-carbonitrile] | 2 | 38 |
| [2H][C@](Nc1cc(Cl)c2ncc(C#N)c(NCC3(C(F)F)CCC3)c2c1)(c1ccc(F)cc1)c1cn(C2CC2)nn1 [Example 198] | 12 | 229 |
| [2H][C@](Nc1cc(Cl)c2ncc(C#N)c(NCC3(C)CC(F)(F)C3)c2c1)(c1ccc(F)cc1)c1cn(C2CC2)nn1 [Example 199, (S)-8-chloro-6-(((1-cyclopropyl-1H-1,2,3-triazol-4-yl)(4-fluorophenyl)methyl-d)amino)-4-(((3,3-difluoro-1-methylcyclobutyl)methyl)amino) quinoline-3-carbonitrile] | 21 | 395 |
| [2H][C@](Nc1cc(Cl)c2ncc(C#N)c(NC3CS(=O)(=O)C3)c2c1)(c1ccc(F)cc1)c1cn(C2CC2)nn1 [Example 200, (S)-8-chloro-6-(((1-cyclopropyl-1H-1,2,3-triazol-4-yl)(4-fluorophenyl)methyl-d)amino)-4-((1,1-dioxidothietan-3-yl)amino)quinoline-3-carbonitrile] | 244 | 7580 |
| [2H][C@](Nc1cc(Cl)c2ncc(C#N)c(NC3COC3)c2c1)(c1ccc(F)cc1)c1cn(C2CC2)nn1 [Example 201, (S)-8-chloro-6-(((1-cyclopropyl-1H-1,2,3-triazol-4-yl)(4-fluorophenyl)methyl-d)amino)-4-(oxetan-3-ylamino) quinoline-3-carbonitrile] | 251 | 2540 |
| [2H][C@](Nc1cc(C#N)c2ncc(C#N)c(N[C@H](CC#N)c3ccccc3)c2c1)(c1ccc(F)cc1)c1cn(C2CC2)nn1 [Example 202, 4-(((R)-2-cyano-1-phenylethyl)amino)-6-(((S)-(1-cyclopropyl-1H-1,2,3-triazol-4-yl)(4-fluorophenyl)methyl-d)amino)quinoline-3,8-dicarbonitrile] | 2 | 44 |
| [2H][C@](Nc1cc(Cl)c2ncc(C#N)c(NCC3(C(F)F)CC3)c2c1)(c1ccc(F)cc1)c1cn(C2CC2)nn1 [Example 203, (S)-8-chloro-6-(((1-cyclopropyl-1H-1,2,3-triazol-4-yl)(4-fluorophenyl)methyl-d)amino)-4-(((1-(difluoromethyl)cyclopropyl)methyl)amino) quinoline-3-carbonitrile] | 38 | 608 |
| [2H][C@](Nc1cc(Cl)c2ncc(C#N)c(NC3CC(F)(F)C3)c2c1)(c1ccc(F)cc1)c1cn(C2CC2)nn1 [Example 204, (S)-8-chloro-6-(((1-cyclopropyl-1H-1,2,3-triazol-4-yl)(4-fluorophenyl)methyl-d)amino)-4-((3,3-difluorocyclobutyl)amino)quinoline-3-carbonitrile] | 97 | 1060 |
| [2H][C@](Nc1cc(Cl)c2ncc(C#N)c(NC3CC(C)(C)C3)c2c1)(c1ccc(F)cc1)c1cn(C2CC2)nn1 [Example 205, (S)-8-chloro-6-(((1-cyclopropyl-1H-1,2,3-triazol-4-yl)(4-fluorophenyl)methyl-d)amino)-4-((3,3-dimethylcyclobutyl)amino)quinoline-3-carbonitrile] | 38 | 873 |
| [2H][C@](Nc1cc(Cl)c2ncc(C#N)c(Nc3cccc(Cl)c3Cl)c2c1)(c1ccc(F)cc1)c1cn(C2CC2)nn1 [Example 206, (S)-8-chloro-6-(((1-cyclopropyl-1H-1,2,3-triazol-4-yl)(4-fluorophenyl)methyl-d)amino)-4-((2,3-dichlorophenyl)amino)quinoline-3-carbonitrile] | 52 | 547 |
| CC(C)(C)CNc1c(C#N)cnc2c(Cl)cc(N[C@H](c3cn(C4CC4)nn3)c3ccc(F)cc3Cl)cc12 [Example 207, (S)-8-chloro-6-(((2-chloro-4-fluorophenyl) (1-cyclopropyl-1H-1,2,3-triazol-4-yl)methyl)amino)-4-(neopentylamino) quinoline-3-carbonitrile] | 17 | 305 |
| [2H][C@](Nc1cc(C#N)c2ncc(C#N)c(N[C@H](CC)c3ccccc3)c2c1)(c1ccc(F)cc1)c1cn(C)nn1 [Example 208, 6-(((S)-(4-fluorophenyl)(1-methyl-1H-1,2,3-triazol-4-yl)methyl-d)amino)-4-(((R)-1-phenylpropyl)amino) quinoline-3,8-dicarbonitrile] | 3 | 83 |
| [2H][C@](Nc1cc(C#N)c2ncc(C#N)c(NCC(C)(C)C)c2c1)(c1ccc(F)cc1)c1cn(C)nn1 [Example 209, (S)-6-(((4-fluorophenyl)(1-methyl-1H-1,2,3-triazol-4-yl)methyl-d)amino)-4-(neopentylamino) quinoline-3,8-dicarbonitrile] | 3 | 83 |
| CC[C@@H](Nc1c(C#N)cnc2c(C#N)cc(N[C@H](c3cn(C4CC4)nn3)c3ccccc3Cl)cc12)c1ccccc1 [Example 210, 6-(((S)-(2-chlorophenyl)(1-cyclopropyl-1H-1,2,3-triazol-4-yl)methyl)amino)-4-(((R)-1-phenylpropyl)amino) quinoline-3,8-dicarbonitrile] | 6 | 243 |
| CC(C)(C)CNc1c(C#N)cnc2c(C#N)cc(N[C@H](c3cn(C4CC4)nn3)c3ccccc3Cl)cc12 [Example 211, (S)-6-(((2-chlorophenyl)(1-cyclopropyl-1H-1,2,3-triazol-4-yl)methyl)amino)-4-(neopentylamino) quinoline-3,8-dicarbonitrile] | 6 | 173 |
| [2H][C@](Nc1cc(Cl)c2ncc(C#N)c(NC3(C)CC(F)(F)C3)c2c1)(c1ccc(F)cc1)c1cn(C2CC2)nn1 [Example 212, (S)-8-chloro-6-(((1-cyclopropyl-1H-1,2,3-triazol-4-yl)(4-fluorophenyl)methyl-d)amino)-4-((3,3-difluoro-1-methylcyclobutyl)amino) quinoline-3-carbonitrile] | 169 | 2180 |
| [2H][C@](Nc1cc(Cl)c2ncc(C#N)c(NC(C)(C)C(C)C)c2c1)(c1ccc(F)cc1)c1cn(C2CC2)nn1 [Example 213, (S)-8-chloro-6-(((1-cyclopropyl-1H-1,2,3-triazol-4-yl)(4-fluorophenyl)methyl-d)amino)-4-((2,3-dimethylbutan-2-yl)amino)quinoline-3-carbonitrile] | 24 | 407 |
| [2H][C@](Nc1cc(Cl)c2ncc(C#N)c(NC3(C)COC3)c2c1)(c1ccc(F)cc1)c1cn(C2CC2)nn1 [Example 214, (S)-8-chloro-6-(((1-cyclopropyl-1H-1,2,3-triazol-4-yl)(4-fluorophenyl)methyl-d)amino)-4-((3-methyloxetan-3-yl)amino)quinoline-3-carbonitrile] | 151 | 4220 |
| [2H][C@](Nc1cc(Cl)c2ncc(C#N)c(NC3CCC3)c2c1)(c1ccc(F)cc1)c1cn(C2CC2)nn1 [Example 215, (S)-8-chloro-4-(cyclobutylamino)-6-(((1-cyclopropyl-1H-1,2,3-triazol-4-yl)(4-fluorophenyl)methyl-d)amino)quinoline-3-carbonitrile] | 119 | 2880 |
| [2H][C@](Nc1cc(Cl)c2ncc(C#N)c(NC3(CC)CC3)c2c1)(c1ccc(F)cc1)c1cn(C2CC2)nn1 [Example 216, (S)-8-chloro-6-(((1-cyclopropyl-1H-1,2,3-triazol-4-yl)(4-fluorophenyl)methyl-d)amino)-4-((1-ethylcyclopropyl)amino)quinoline-3-carbonitrile] | 492 | 5720 |
| [2H][C@](Nc1cc(Cl)c2ncc(C#N)c(NC3(C#N)CC3)c2c1)(c1ccc(F)cc1)c1cn(C2CC2)nn1 [Example 217, (S)-8-chloro-4-((1-cyanocyclopropyl)amino)-6-(((1-cyclopropyl-1H-1,2,3-triazol-4-yl)(4-fluorophenyl)methyl-d)amino)quinoline-3-carbonitrile] | 327 | 3580 |
| [2H][C@](Nc1cc(Cl)c2ncc(C#N)c(NC3(CC)CCC3)c2c1)(c1ccc(F)cc1)c1cn(C2CC2)nn1 [Example 218, (S)-8-chloro-6-(((1-cyclopropyl-1H-1,2,3-triazol-4-yl)(4-fluorophenyl)methyl-d)amino)-4-((1-ethylcyclobutyl)amino)quinoline-3-carbonitrile] | 432 | 5390 |
| [2H][C@](Nc1cc(Cl)c2ncc(C#N)c(NC3(C)CCC3)c2c1)(c1ccc(F)cc1)c1cn(C2CC2)nn1 [Example 219, (S)-8-chloro-6-(((1-cyclopropyl-1H-1,2,3-triazol-4-yl)(4-fluorophenyl)methyl-d)amino)-4-((1-methylcyclobutyl)amino)quinoline-3-carbonitrile] | 534 | 4930 |
